Results published in patent US12077503B2, “Substituted cyclic amides and their use as herbicides” (FMC CORPORATION, priority 2015, dated 2024).

How the values were obtained:
Format in all cases: in vivo
[1] = tested on: giant foxtail (Setaria faberi); test: Test G Pre-Emergence Protocol; conditions: Setaria faberi, pre-emergence, 312 h, evaluated after 13 days
In short: (§1)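 Scores are visual damage ratings from 0 (no damage) to 100 (total plant kill), taken 13 days after treatment. Compound was sprayed one day post-sowing at 15.625, 62.5 or 250 g/ha in 50:50 acetone/water with 0.5% Tween 20.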

[2] = tested on: redroot pigweed (Amaranthus retroflexus); test: Test G Pre-Emergence Protocol; conditions: Amaranthus retroflexus, pre-emergence, 312 h, evaluated after 13 days
In short: as §1

corn (Zea mays) [3] = test: Test G Pre-Emergence Protocol; conditions: Zea mays, pre-emergence, 312 h, evaluated after 13 days
In short: as §1

[4] = tested on: barnyardgrass (Echinochloa crus-galli); test: Test G Pre-Emergence Protocol; conditions: Echinochloa crus-galli, pre-emergence, 312 h, evaluated after 13 days
In short: as §1

[5] = tested on: ivy-leaved morning glory (Ipomoea hederacea); test: Test G Pre-Emergence Protocol; conditions: Ipomoea, pre-emergence, 312 h, evaluated after 13 days
In short: as §1

[6] = tested on: velvetleaf (Abutilon theophrasti); test: Test G Pre-Emergence Protocol; conditions: Abutilon theophrasti, pre-emergence, 312 h, evaluated after 13 days
In short: as §1

[7] = tested on: giant foxtail (Setaria faberi); test: Test G Post-Emergence Protocol; conditions: Setaria faberi, post-emergence, 312 h
In short: (§2)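 Damage was rated 13 days after treatment from 0 (none) to 100 (plant killed). Compound was applied as a spray at 15.625, 62.5 or 250 g/ha in 50:50 acetone/water containing 0.5% Tween 20, onto 8-day-old potted plants kept in a glasshouse (24/16 °C, 14 h light, 65% humidity).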

[8] = tested on: redroot pigweed (Amaranthus retroflexus); test: Test G Post-Emergence Protocol; conditions: Amaranthus retroflexus, post-emergence, 312 h
In short: as §2

corn (Zea mays) [9] = test: Test G Post-Emergence Protocol; conditions: Zea mays, post-emergence, 312 h
In short: as §2

[10] = tested on: barnyardgrass (Echinochloa crus-galli); test: Test G Post-Emergence Protocol; conditions: Echinochloa crus-galli, post-emergence, 312 h
In short: as §2

[11] = tested on: ivy-leaved morning glory (Ipomoea hederacea); test: Test G Post-Emergence Protocol; conditions: Ipomoea, post-emergence, 312 h
In short: as §2

[12] = tested on: velvetleaf (Abutilon theophrasti); test: Test G Post-Emergence Protocol; conditions: Abutilon theophrasti, post-emergence, 312 h
In short: as §2

Compound: CN1C[C@H](c2cccc(C(F)F)c2)[C@@H](C(=O)Nc2ccccc2F)C1=O (racemic) [Compound 1464]
- pest or weed control at 15.625 g/ha ([1]; 15.625 g ai/ha, read-out: Foxtail, Giant damage rating (100=total damage to plant; 0=no damage to plant)): 80%
- pest or weed control at 62.5 g/ha ([1]; 62.5 g ai/ha, 100=total damage to plant, 0=no damage to plant, read-out: plant damage rating, Foxtail, Giant): 90%
- pest or weed control at 250 g/ha ([1]; 250 g ai/ha, read-out: Foxtail, Giant damage rating (100=total damage to plant; 0=no damage to plant)): 90%
- pest or weed control at 15.625 g/ha ([2]; 15.625 g ai/ha, read-out: Pigweed, Redroot damage rating (100=total damage to plant; 0=no damage to plant)): 0%
- pest or weed control at 62.5 g/ha ([2]; 62.5 g ai/ha, 100=total damage to plant, 0=no damage to plant, read-out: plant damage rating, Pigweed, Redroot): 0%
- pest or weed control at 250 g/ha ([2]; 250 g ai/ha, read-out: Pigweed, Redroot damage rating (100=total damage to plant; 0=no damage to plant)): 0%
- plant injury at 15.625 g/ha (corn (Zea mays) [3]; 15.625 g ai/ha, read-out: Corn damage rating (100=total damage to plant; 0=no damage to plant)): 0%
- plant injury at 62.5 g/ha (corn (Zea mays) [3]; 62.5 g ai/ha, 100=total damage to plant, 0=no damage to plant, read-out: plant damage rating, Corn): 50%
- plant injury at 250 g/ha (corn (Zea mays) [3]; 250 g ai/ha, read-out: Corn damage rating (100=total damage to plant; 0=no damage to plant)): 80%
- pest or weed control at 15.625 g/ha ([4]; 15.625 g ai/ha, read-out: Barnyard grass damage rating (100=total damage to plant; 0=no damage to plant)): 80%
- pest or weed control at 62.5 g/ha ([4]; 62.5 g ai/ha, 100=total damage to plant, 0=no damage to plant, read-out: plant damage rating, Barnyardgrass): 90%
- pest or weed control at 250 g/ha ([4]; 250 g ai/ha, read-out: Barnyardgrass damage rating (100=total damage to plant; 0=no damage to plant)): 90%
- pest or weed control at 15.625 g/ha ([5]; 15.625 g ai/ha, read-out: Morning-glory, Ivy-leaved damage rating (100=total damage to plant; 0=no damage to plant)): 0%
- pest or weed control at 62.5 g/ha ([5]; 62.5 g ai/ha, 100=total damage to plant, 0=no damage to plant, read-out: plant damage rating, Morningglory, Ivy-leaved): 30%
- pest or weed control at 250 g/ha ([5]; 250 g ai/ha, read-out: Morningglory, Ivy-leaved damage rating (100=total damage to plant; 0=no damage to plant)): 70%
- pest or weed control at 15.625 g/ha ([6]; 15.625 g ai/ha, read-out: Velvetleaf damage rating (100=total damage to plant; 0=no damage to plant)): 0%
- pest or weed control at 62.5 g/ha ([6]; 62.5 g ai/ha, 100=total damage to plant, 0=no damage to plant, read-out: plant damage rating, Velvetleaf): 0%
- pest or weed control at 250 g/ha ([6]; 250 g ai/ha, read-out: Velvetleaf damage rating (100=total damage to plant; 0=no damage to plant)): 0%
- pest or weed control at 15.625 g/ha ([7]; 15.625 g ai/ha, evaluated after 13 days (100=total damage to plant; 0=no damage to plant), read-out: Foxtail, Giant damage rating): 70%
- pest or weed control at 62.5 g/ha ([7]; 62.5 g ai/ha, evaluated after 13 days, read-out: Foxtail, Giant damage rating (100=total damage to plant; 0=no damage to plant)): 70%
- pest or weed control at 250 g/ha ([7]; 250 g ai/ha, evaluated after 13 days, read-out: damage to plant, Foxtail, Giant (100=total damage to plant; 0=no damage to plant)): 70%
- pest or weed control at 15.625 g/ha ([8]; 15.625 g ai/ha, evaluated after 13 days (100=total damage to plant; 0=no damage to plant), read-out: Pigweed, Redroot damage rating): 10%
- pest or weed control at 62.5 g/ha ([8]; 62.5 g ai/ha, evaluated after 13 days, read-out: Pigweed, Redroot damage rating (100=total damage to plant; 0=no damage to plant)): 10%
- pest or weed control at 250 g/ha ([8]; 250 g ai/ha, evaluated after 13 days, read-out: damage to plant, Pigweed, Redroot (100=total damage to plant; 0=no damage to plant)): 30%
- plant injury at 15.625 g/ha (corn (Zea mays) [9]; 15.625 g ai/ha, evaluated after 13 days (100=total damage to plant; 0=no damage to plant), read-out: Corn damage rating): 20%
- plant injury at 62.5 g/ha (corn (Zea mays) [9]; 62.5 g ai/ha, evaluated after 13 days, read-out: Corn damage rating (100=total damage to plant; 0=no damage to plant)): 10%
- plant injury at 250 g/ha (corn (Zea mays) [9]; 250 g ai/ha, evaluated after 13 days, read-out: damage to plant, Corn (100=total damage to plant; 0=no damage to plant)): 80%
- pest or weed control at 15.625 g/ha ([10]; 15.625 g ai/ha, evaluated after 13 days (100=total damage to plant; 0=no damage to plant), read-out: Barnyardgrass damage rating): 20%
- pest or weed control at 62.5 g/ha ([10]; 62.5 g ai/ha, evaluated after 13 days, read-out: Barnyardgrass damage rating (100=total damage to plant; 0=no damage to plant)): 20%
- pest or weed control at 250 g/ha ([10]; 250 g ai/ha, evaluated after 13 days, read-out: damage to plant, Barnyardgrass (100=total damage to plant; 0=no damage to plant)): 50%
- pest or weed control at 15.625 g/ha ([11]; 15.625 g ai/ha, evaluated after 13 days (100=total damage to plant; 0=no damage to plant), read-out: Morningglory, Ivy-leaved damage rating): 10%
- pest or weed control at 62.5 g/ha ([11]; 62.5 g ai/ha, evaluated after 13 days, read-out: Morningglory, Ivy-leaved damage rating (100=total damage to plant; 0=no damage to plant)): 20%
- pest or weed control at 250 g/ha ([11]; 250 g ai/ha, evaluated after 13 days, read-out: damage to plant, Morningglory, Ivy-leaved (100=total damage to plant; 0=no damage to plant)): 50%
- pest or weed control at 15.625 g/ha ([12]; 15.625 g ai/ha, evaluated after 13 days (100=total damage to plant; 0=no damage to plant), read-out: Velvetleaf damage rating): 10%
- pest or weed control at 62.5 g/ha ([12]; 62.5 g ai/ha, evaluated after 13 days, read-out: Velvetleaf damage rating (100=total damage to plant; 0=no damage to plant)): 0%
- pest or weed control at 250 g/ha ([12]; 250 g ai/ha, evaluated after 13 days, read-out: damage to plant, Velvetleaf (100=total damage to plant; 0=no damage to plant)): 10%
